The values below are quoted from earlier work in US20240299307A1, “Extended-release compositions comprising atomoxetine” (Tulex Pharmaceuticals, Inc., priority 2021, published 2024).

Read-outs that look alike come from different tables or passages of the source.

As to `CNCC[C@@H](Oc1ccccc1C)c1ccccc1` [ATO], the solubility result runs as follows: (pH of about 1) “about 18 mg/mL”; (pH of about 4.5 (highest solubility)) “about 52 mg/mL”. The “decrease of solubility relative to pH about 4.5” value (pH of greater than about 4.5) is given as “approximately 10 fold” and the “decrease of solubility relative to pH about 4.5” value (pH of less than 4.5) is reported as “approximately 3 fold”.
